In patent US6930115B2, “Antitumor effect potentiators” (Mitsubishi Pharma Corporation, priority 2000, dated 2005):

How the values were obtained:
[1] = tested on: Mouse melanoma B16-F10 cells; test: Measurement of cell growth activity (MTT), in vitro growth of B16-F10 cells; assay type: cell-based; conditions: for CI (Combination Index): median effect analysis; for average growth suppression rate ± standard error: MTT
Experimental: Mouse melanoma B16-F10 cells (the aforementioned) were cultured in MEM supplemented with 2 mM L-glutamine, 1 mM MEM non-essential amino acids, 1% MEM vitamins, 1 mM pyruvic acid and 5% FCS, and the cells were scraped off from the culture flask every 3-4 days with a cell scraper (No. 3010, manufactured by Coaster), diluted 10-fold and maintained by subculture. In the experiment examining the effect of the test substance on the cell growth, the B16-F10 cells maintained in vitro by subculture were recovered with a cell scraper, suspended in MEM supplemented with 10% FCS at 2×10^5 cells/mL and added to a 96 well microtest plate (Becton Dickinson) at 1×10^4 cells/50 μL/well. Furthermore, 50 μL of a test substance at a 2-fold concentration of the final concentration was added to the well, and cultured in a CO2 incubator (MCO-175, SANYO Electric Co., Ltd.) at 37° C., 5% CO2 95% air for 72 hr.
After culture, 10 mg/mL of MTT [(3-[4,5-Dimethylthiazol-2-yl]-2,5-diphenyl-tetrazolium bromide)] was added at 10 μL/well, which was followed by culture for 3 hr. Thereafter, 100 μL of 10% SDS (sodium dodecylsulfate)—0.01N HCl was added to dissolve the pigment and absorbance at 570 nm was measured with a multilabel counter (1420 ARVO SX, Pharmacia Biotech Corporation). According to the concentration of the test substance, each well was expressed by absorbance, and average value and standard error. Using the well, to which the medium alone was added, as a control, the growth inhibition rate was calculated according to the following formula. [formula] Analysis method: Based on the dose reaction curves of the inventive compound alone treatment group and cisplatin alone treatment group, the combination index (CI) of the action in concomitant use is calculated by median effect analysis (References and [2]). (Results)

[2] = tested on: mouse B16-F10 melanoma cultured cells; test: Hematogenous pulmonary metastasis after transplantation of mouse B16-F10 melanoma cultured cells into tail vein; assay type: in vivo; conditions: for CI (Combination Index): Median Effect Analysis, CI below 1 = synergistic
Experimental: • (1) Preparation of mouse B16-F10 melanoma cultured cells (hereinafter simply B16-F10) B16-F10 cells (a permission to use was obtained from US M.D. Anderson Cancer Center, Dr. I. Fidler and provided for use from Japanese Foundation for cancer research·cancer chemotherapy center, Dr. […] For experiment, B16-F10 cells were suspended in MEM at 5×10^5 cells/mL and 0.2 mL thereof was transferred into the tail vein of 8-week-old male C57BL/6 mice (8 per group). […] Alzet, model 1002, flow rate […], for use for 14 days), and the osmotic pump was intraperitoneally transplanted into the mice one day before the transplantation of B16-F10 cells. • (3) As regards cisplatin, a preparation for injection (product name: Randa injection) was diluted with physiological saline and intraperitoneally administered once the day after transplantation of B16-F10 cells. As regards etoposide, a preparation for injection (product name: […] injection) was diluted with physiological saline and repeatedly administered intraperitoneally once a day for 5 days starting from one day after transplantation of B16-F10 cells. Paclitaxel was purchased from Sigma chemicals Co., suspended in 0.5% metolose solution and repeatedly administered intraperitoneally once every other day (3 times/week for 2 weeks) starting from one day after transplantation of B16-F10 cells. […] In addition, the values of combination index (CI) of the action in concomitant use analyzed by Median Effect Analysis (References and [2]) with regard to the combination group of the compound of the present invention and the anticancer agent are summarized in Table 3 and Table 6.

Compound: C[C@@H](N)c1ccc(C(=O)Nc2ccncc2)cc1.Cl [compound of the present invention, (R)-(+)-N-(4-pyridyl)-4-(1-aminoethyl)benzamide HCl]
- CI (Combination Index) ([1]; compound 0.3 μM + cisplatin 10 μM): 0.4293
- CI (Combination Index) ([1]; compound 1 μM + cisplatin 10 μM): 0.4656
- CI (Combination Index) ([1]; compound 3 μM + cisplatin 10 μM): 0.4478
- CI (Combination Index) ([1]; compound 10 μM + cisplatin 10 μM): 0.4403
- CI (Combination Index) ([1]; compound 30 μM + cisplatin 10 μM): 0.5071
- CI (Combination Index) ([1]; compound 100 μM + cisplatin 10 μM): 0.3558
- average growth suppression rate ± standard error ([1]; compound 0.1 (no unit in Table 7; μM in Table 8) alone, 72 hr culture): 4.389 ± 3.094%
- average growth suppression rate ± standard error ([1]; compound 0.3 (no unit in Table 7; μM in Table 8) alone, 72 hr culture): 5.196 ± 0.214%
- average growth suppression rate ± standard error ([1]; compound 0.3 in combination with cisplatin 10 μM, 72 hr, NS (p = 0.1293) vs. cisplatin (10 μM) alone): 17.200 ± 11.245%
- average growth suppression rate ± standard error ([1]; compound 1 (no unit in Table 7; μM in Table 8) alone, 72 hr culture): 7.877 ± 0.727%
- average growth suppression rate ± standard error ([1]; compound 1 in combination with cisplatin 10 μM, 72 hr, NS (P = 0.1236) vs. cisplatin (10 μM) alone): 17.319 ± 4.397%
- average growth suppression rate ± standard error ([1]; compound 3 (no unit in Table 7; μM in Table 8) alone, 72 hr culture): 10.012 ± 1.459%
- average growth suppression rate ± standard error ([1]; compound 3 in combination with cisplatin 10 μM, 72 hr, p = 0.0028 vs. cisplatin (10 μM) alone): 26.406 ± 8.364%
- average growth suppression rate ± standard error ([1]; compound 10 (no unit in Table 7; μM in Table 8) alone, 72 hr culture): 10.700 ± 0.365%
- average growth suppression rate ± standard error ([1]; compound 10 in combination with cisplatin 10 μM, 72 hr, p = 0.0000 vs. cisplatin (10 μM) alone): 43.796 ± 5.446%
- average growth suppression rate ± standard error ([1]; compound 30 (no unit in Table 7; μM in Table 8) alone, 72 hr culture): 22.657 ± 4.784%
- average growth suppression rate ± standard error ([1]; compound 30 in combination with cisplatin 10 μM, 72 hr, p = 0.0000 vs. cisplatin (10 μM) alone): 90.320 ± 2.220%
- average growth suppression rate ± standard error ([1]; compound 100 (no unit in Table 7; μM in Table 8) alone, 72 hr culture): 57.960 ± 8.575%
- average growth suppression rate ± standard error ([1]; compound 100 in combination with cisplatin 10 μM, 72 hr, p = 0.0000 vs. cisplatin (10 μM) alone): 96.180 ± 0.164%
- T/C±standard error (average number of pulmonary metastatic colonies of administration group/control group ×100) ([2]; Table 1, compound 1 mg/kg oral administration once a day for 14 days, alone): 77.1 ± 10.0%
- T/C±standard error (average number of pulmonary metastatic colonies of administration group/control group ×100) ([2]; Table 1, compound 1 mg/kg oral once a day for 14 days in combination with cisplatin 5 mg/kg intraperitoneally once): 13.4 ± 1.4%
- T/C±standard error (average number of pulmonary metastatic colonies of administration group/control group ×100) ([2]; Table 1, compound 1 mg/kg oral once a day for 14 days in combination with cisplatin 10 mg/kg intraperitoneally once, p < 0.01 vs. cisplatin (10 mg/kg) alone): 19.5 ± 3.0%
- T/C±standard error (average number of pulmonary metastatic colonies of administration group/control group ×100) ([2]; Table 1, compound 3 mg/kg oral administration once a day for 14 days, alone): 65.2 ± 3.7%
- T/C±standard error (average number of pulmonary metastatic colonies of administration group/control group ×100) ([2]; Table 1, compound 3 mg/kg oral once a day for 14 days in combination with cisplatin 5 mg/kg intraperitoneally once): 14.4 ± 2.0%
- T/C±standard error (average number of pulmonary metastatic colonies of administration group/control group ×100) ([2]; Table 1, compound 3 mg/kg oral once a day for 14 days in combination with cisplatin 10 mg/kg intraperitoneally once, p < 0.01 vs. cisplatin (10 mg/kg) alone): 16.5 ± 1.4%
- T/C±standard error (average number of pulmonary metastatic colonies of administration group/control group ×100) ([2]; Table 2, compound 0.3 mg/kg by intraperitoneal osmotic pump (14 days), alone): 73.4 ± 10.1%
- T/C±standard error (average number of pulmonary metastatic colonies of administration group/control group ×100) ([2]; Table 2, compound 0.3 mg/kg by osmotic pump in combination with cisplatin 10 mg/kg intraperitoneally once): 12.1 ± 2.1%
- T/C±standard error (average number of pulmonary metastatic colonies of administration group/control group ×100) ([2]; Table 2, compound 1 mg/kg by intraperitoneal osmotic pump (14 days), alone): 69.9 ± 7.7%
- T/C±standard error (average number of pulmonary metastatic colonies of administration group/control group ×100) ([2]; Table 2, compound 1 mg/kg by osmotic pump in combination with cisplatin 10 mg/kg intraperitoneally once): 13.0 ± 1.8%
- T/C±standard error (average number of pulmonary metastatic colonies of administration group/control group ×100) ([2]; Table 2, compound 3 mg/kg by intraperitoneal osmotic pump (14 days), alone): 63.5 ± 7.7%
- T/C±standard error (average number of pulmonary metastatic colonies of administration group/control group ×100) ([2]; Table 2, compound 3 mg/kg by osmotic pump in combination with cisplatin 10 mg/kg intraperitoneally once, P < 0.05 vs. cisplatin (10 mg/kg) alone): 11.1 ± 1.4%
- T/C±standard error (average number of pulmonary metastatic colonies of administration group/control group ×100) ([2]; Table 4, compound 1 mg/kg oral administration once a day for 14 days, alone): 83.4 ± 10.8%
- T/C±standard error (average number of pulmonary metastatic colonies of administration group/control group ×100) ([2]; Table 4, compound 1 mg/kg oral in combination with etoposide 5 mg/kg intraperitoneally once a day for 5 days, P < 0.05 vs. etoposide (5 mg/kg) alone): 22.0 ± 4.8%
- T/C±standard error (average number of pulmonary metastatic colonies of administration group/control group ×100) ([2]; Table 4, compound 3 mg/kg oral administration once a day for 14 days, alone): 70.5 ± 4.0%
- T/C±standard error (average number of pulmonary metastatic colonies of administration group/control group ×100) ([2]; Table 4, compound 3 mg/kg oral in combination with etoposide 5 mg/kg intraperitoneally once a day for 5 days, P < 0.01 vs. etoposide (5 mg/kg) alone): 19.2 ± 2.8%
- T/C±standard error (average number of pulmonary metastatic colonies of administration group/control group ×100) ([2]; Table 5, compound 1 mg/kg oral administration once a day for 14 days, alone): 69.8 ± 9.0%
- T/C±standard error (average number of pulmonary metastatic colonies of administration group/control group ×100) ([2]; Table 5, compound 1 mg/kg oral in combination with paclitaxel 5 mg/kg intraperitoneally once every other day, P < 0.05 vs. paclitaxel (5 mg/kg) alone): 20.6 ± 2.6%
- T/C±standard error (average number of pulmonary metastatic colonies of administration group/control group ×100) ([2]; Table 5, compound 3 mg/kg oral administration once a day for 14 days, alone): 59.0 ± 3.3%
- T/C±standard error (average number of pulmonary metastatic colonies of administration group/control group ×100) ([2]; Table 5, compound 3 mg/kg oral in combination with paclitaxel 5 mg/kg intraperitoneally once every other day, P < 0.01 vs. paclitaxel (5 mg/kg) alone): 16.3 ± 3.0%
- number of pulmonary metastatic colonies of B16-F10 cells ([2]; combination group with cisplatin as compared to the cisplatin alone administration group (p<0.01 or p<0.05, Dunnett's test)): significantly decreased
- number of pulmonary metastatic colonies of B16-F10 cells ([2]; combination group with etoposide as compared to the etoposide alone administration group (p<0.01 or p<0.05 Dunnett's test)): significantly decreased
- number of pulmonary metastatic colonies of B16-F10 cells ([2]; combination group with paclitaxel as compared to the paclitaxel alone administration group (p<0.01 or p<0.05 Dunnett's test)): significantly decreased
- CI (Combination Index) ([2]; compound 0.3 mg/kg osmotic pump + cisplatin 10 mg/kg): 0.19
- CI (Combination Index) ([2]; compound 1 mg/kg oral + Etoposide (5 mg/kg)): 0.42
- CI (Combination Index) ([2]; compound 1 mg/kg oral + Paclitaxel (5 mg/kg)): 0.63
- CI (Combination Index) ([2]; compound 1 mg/kg oral administration + cisplatin 10 mg/kg): 0.12
- CI (Combination Index) ([2]; compound 1 mg/kg osmotic pump + cisplatin 10 mg/kg): 0.21
- CI (Combination Index) ([2]; compound 3 mg/kg oral + Etoposide (5 mg/kg)): 0.34
- CI (Combination Index) ([2]; compound 3 mg/kg oral + Paclitaxel (5 mg/kg)): 0.34
- CI (Combination Index) ([2]; compound 3 mg/kg oral administration + cisplatin 10 mg/kg): 0.09
- CI (Combination Index) ([2]; compound 3 mg/kg osmotic pump + cisplatin 10 mg/kg): 0.17
- CI value of the action in concomitant use ([2]; compound and cisplatin used in combination, every dose (Table 3)): lower than 1
- combination index of the action in concomitant use ([2]; compound and etoposide used in combination (Table 6)): lower than 1
- combination index of the action in concomitant use ([2]; compound and paclitaxel used in combination (Table 6)): lower than 1
